According to patent publication US20160279110A1, “COMPOSITIONS AND METHODS FOR TREATING CANCER” (UNIVERSITY OF ROCHESTER, priority 2015, published 2016):
Like-named read-outs stand apart in the source and are kept apart here.

How the values were obtained:
NMD [1] = assay: NMD reporter mRNA levels by RT-qPCR in MCF7 cells exposed to NMDI-1; format: cell-based, human
NMD [2] = assay: NMD reporter mRNA levels (β-Gl Ter, GPx1 Ter) by RT-qPCR in HeLa cells exposed to NMDI-1; format: cell-based, human
Description: Norm encodes a PTCfree version of GPx1 mRNA, whereas Ter encodes mRNA harboring a PTC at codon 46. Cells were re-plated 16 h after transfection at equivalent densities and exposed 24 h later to the indicated concentration of NMDI-1 or, as a positive control for NMD inhibition, cycloheximide (CHX). The levels of β-Gl reporter mRNAs were normalized to the level of the MUP reference mRNA, and the normalized levels of β-Gl Ter mRNA are presented as a percentage of the normalized level of β-Gl Norm mRNA. FIG. 16b is essentially as in a, except GPx1Ter mRNA was analyzed. FIG. 16c is essentially as in b, except MCF7 cells were used. FIG. 16d is essentially as in b, except MCF7 cells were used.
Cells were homogenized, and RNA was purified using RNeasy mini kits (Qiagen). To ensure linearity of both reverse transcription (RT) and qPCR analyses, 17 standard concentrations were constructed using two-fold serial dilutions of total-cell RNA, beginning with 2 μg. Experimental sample input was 200 ng of RNA. RT was conducted using Superscript III (Invitrogen) according to manufacturer's directions and 100 ng of random hexamer (Invitrogen) in a 20 μl reaction volume. Thermal cycling was as follows: 25° C. for 5 min; 42° C. for 60 min; 50° C. for 60 min; and 75° C. for 10 min. Reactions were diluted to a final volume of 80 μl with water and used for qPCR.
qPCR was conducted using FAST SYBR green master mix (ABI; Foster City, Calif.) according to manufacturer's directions. Cycling was done using a 7500 FAST Real Time machine (ABI) with default conditions, and thermal denaturation curves were generated for each run. Primer sequences were as follows, with mRNA primers sets containing at least one primer spanning an exon-exon junction, and pre-mRNA primer sets containing at least one primer that hybridizes to intronic sequences. Primers for Gl mRNA, GPx1 mRNA and MUP mRNA were described in Kurosaki et al.
Therefore, a small-molecule inhibitor of NMD, NMDI-1 (FIG. 8c), that interferes with the interaction between UPF1 and SMG5 was utilized. Application of NMDI-1 and the consequential attenuation of NMD may more fully replicate the complete inhibition of NMD mediated by the UPF1 CP generation explored here as well as UPF1 dephosphorylation and the generation of additional UPF1 CPs seen with doxorubicin (FIG. 1c).

HeLa cells = tested on: HeLa cells; parameters: reduction in cell viability relative to doxorubicin alone: dose or concentration left out as unconfirmed
Description: Viable cells were quantitated using a Cell Titer Glo assay. […] (d) HeLa cells were plated as in b and exposed to one of three treatments 24 h later—the indicated doxonibicin concentration is provided for 16 h either alone (left histogram) or in the presence of 10 μM NMDI-1 (middle histogram). Alternatively, cells were preincubated with 10 M NMDI-1 for 8 h, washed three times and incubated with the indicated concentrations of doxorubicin for 16 h in the absence of NMDI-1. Viable cells were quantitated as in b. Error bars=S.E.M, *=P<0.05 relative to doxorubicin alone treatment using the Student's t-test. n=4 biological replicates.
Cells were plated in white opaque 96-well plates using multichannel pipettors for accuracy and treated as described in the figure legends. CellTiter-Glo luminescent assays (Promega) were performed according to manufacturer's directions. Data were collected using a SpectraMax M2 plate reader.
First, HeLa cells were challenged with various concentrations of doxorubicin alone. Second, cells were continuously co-incubated for 16 h with doxorubicin and NMDI-1. Third, a transient pulse of NMDI-1 was applied for 8 h, cells were washed to remove NMDI-1, and doxorubicin was then applied.

[3] = NMDI-1 at a concentration of 10

## Cc1c2ccnc(Cl)c2c(C)c2c1[nH]c1ncccc12 [NMDI-1]
NMD [1]
  effect on NMD in MCF7 cells: no effect
NMD [2]
  inhibition of NMD in HeLa cells: effective in HeLa cells
NMD [2]; [3]
  raising the level of PTC-bearing glutathione peroxidase 1 (GPx1) mRNA: ~1.6 fold
  raising the level of β-Gl Ter mRNA: ~3.8 fold
NMD [2]; listed as NMD-1
  inhibition of NMD in HeLa cells: potent inhibitor of NMD
HeLa cells; 0.5 μM doxorubicin, doxorubicin alone, co-treatment or pre-treatment with NMDI-1
  cell viability at sub-lethal doxorubicin: none of the treatments significantly affected viability
HeLa cells; NMDI-1 pulse 8 h, washed, then doxorubicin 16 h
  reduction in cell viability relative to doxorubicin alone: ~2.5 fold
HeLa cells; continuous co-incubation 16 h with doxorubicin and NMDI-1
  cell viability relative to doxorubicin treatment alone: statistically significant decreases in cell viability
